PubChem BioAssay (NCI)
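Briefly, cells in 96-well plates were exposed to five compound concentrations for 48 h, and endpoints were estimated by linear interpolation. GI50 marks 50% less growth. TGI: concentration producing complete growth inhibition.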

What was measured:
Assay in all cases: NCI tumour cell line growth inhibition, 48 h
CCRF-CEM leukemia = system: CCRF-CEM leukemia
HOP-92 NSCLC = system: HOP-92 NSCLC
KM12 colon = system: KM12 colon
MALME-3M melanoma = system: MALME-3M melanoma
NCI-H226 lung = system: NCI-H226 lung
NCI-H460 lung = system: NCI-H460 lung
RXF 393 renal = system: RXF 393 renal
SF-539 CNS = system: SF-539 CNS
SNB-75 CNS = system: SNB-75 CNS
UACC-257 melanoma = system: UACC-257 melanoma

| SMILES | GI50 (CCRF-CEM leukemia) | TGI (CCRF-CEM leukemia) | GI50 (HOP-92 NSCLC) | TGI (HOP-92 NSCLC) | GI50 (KM12 colon) | TGI (KM12 colon) | GI50 (MALME-3M melanoma) | TGI (MALME-3M melanoma) | GI50 (NCI-H226 lung) | TGI (NCI-H226 lung) | GI50 (NCI-H460 lung) | TGI (NCI-H460 lung) | GI50 (RXF 393 renal) | TGI (RXF 393 renal) | GI50 (SF-539 CNS) | TGI (SF-539 CNS) | GI50 (SNB-75 CNS) | TGI (SNB-75 CNS) | GI50 (UACC-257 melanoma) | TGI (UACC-257 melanoma) |
| --- | --- | --- | --- | --- | --- | --- | --- | --- | --- | --- | --- | --- | --- | --- | --- | --- | --- | --- | --- | --- |
| C=CC1CC12C(=O)C1OC2(C)C2C(=O)c3c(O)cccc3C(=O)C12 (stereo not given) | 26 µM | > 100 µM | 25.8 µM | > 100 µM | 18 µM | 66.3 µM | 17.1 µM | 54.5 µM | 45.6 µM | > 100 µM | 33.8 µM | > 100 µM | 13.1 µM | 41.1 µM | 41.6 µM | > 100 µM | 72.4 µM | > 100 µM | 33.3 µM | > 100 µM |
| S=P(C1CCCCC1)(C1CCCCC1)C(c1cccnc1)N1CCCC1 (stereo not given) |  | 36.3 µM |  | 42.7 µM |  | 33.4 µM |  | 39.9 µM |  | 38 µM |  | 50.7 µM |  | 33.4 µM |  | 35.2 µM |  | 35.4 µM |  | > 100 µM |
| CC/C=C\C[C@H](O)C/C=C1/C(=O)C=C[C@@H]1C/C=C\CCCC(=O)OCCS(=O)(=O)c1ccccc1 | 2.44 µM | 9.26 µM | 6.87 µM | 19.4 µM | 2.09 µM | 6.05 µM | 6.71 µM | 22.3 µM | 2.69 µM | 6.39 µM | 2.53 µM | 6.35 µM | 2.75 µM | 6.47 µM | 4.68 µM | 16.9 µM | 17.2 µM | 88.8 µM | 4.54 µM | 17.3 µM |
| CS(=O)(=O)c1nccc(-c2c(-c3cccc(OCc4ccccc4)c3)nc3sccn23)n1 | > 30.1 µM | > 100 µM | 6.38 µM | > 100 µM | 4.64 µM | 9.98 µM | 16.4 µM | > 100 µM | 12.1 µM | > 100 µM | > 83.5 µM | > 100 µM | 15.3 µM | > 100 µM | > 60.4 µM | > 100 µM | > 28.5 µM | > 100 µM | 10.4 µM | 32.5 µM |
| COC(=O)c1ccc(CS(=O)(=O)c2ccccc2)cc1 |  | > 100 µM |  | > 100 µM |  | > 100 µM |  | > 100 µM |  | > 100 µM |  | > 100 µM |  | > 100 µM |  | > 100 µM |  | > 100 µM |  | > 100 µM |
| COc1ccc2c(c1)O/C(=C\c1ccc([N+](=O)[O-])o1)C2=O | 0.34 µM | 1.7 µM | 1.95 µM | 5.62 µM | 1.37 µM | 3.42 µM | 2.45 µM | 5.77 µM | 3.44 µM | 23.6 µM | 0.598 µM | 3.89 µM | 1.47 µM | 2.99 µM | 1.6 µM | 4.14 µM | 2.24 µM | 8.26 µM | 1.72 µM | 3.85 µM |
| CCCCCCCCCCCCCCCCSS(C)(=O)=O |  | 18.4 µM |  | 37.9 µM |  | > 100 µM |  | 24.9 µM |  | > 35.3 µM |  | > 75.2 µM |  | 10.9 µM |  | > 56.4 µM |  | 32.6 µM |  | > 93.5 µM |
